Here are results for three molecules from US9340543B2, “Helquat derivatives, preparation thereof, and use thereof as medicaments” (USTAV ORGANICKE CHEMIE A BIOCHEMIE AKADEMIE VED CR, V.V.I., priority 2013, dated 2016).

What all share (assay type): cell-based
In one assay the test system is HeLa. Briefly: CellTiter-Glo luminescent cell viability assay (ATP quantification), HeLa. Particulars: cervical cancer cells, 72 h treatment, viable cells by ATP luminescence. The protocol: (§1) Influence of the test compounds on viability (proliferation) of cell lines used was investigated in concentration range 0-100 μmol·l^−1.
Adherent cell line HeLa is a permanent in vitro culture derived from cervical cancer. HeLa cell line was cultivated in RPMI 1640 medium (Dutch modification) (Sigma-Aldrich, cat. no. R7638) with addition of 2 mmol·l^−1 glutamine (Invitrogen, see above), 10% fetal bovine serum (FBS, Sigma-Aldrich, see above), 100 IU/ml peniciline, 100 μg/ml streptomycine (Sigma-Aldrich, see above). Passaging was performed twice a week. After washing of cells with sterile PBS the cells were released by 0.25% trypsin/EDTA (Sigma-Aldrich, cat. no. T4049) at 37° C. for 2 minutes. The trypsin was inactivated by addition of 2 volumes of complete medium, cells were then centrifuged (250×g, 5 min), the cell pellet was resuspended, and transferred in the amount needed into a new cultivation bottle with fresh medium. Population doubling time of […] cell line was 25 h under the cultivation conditions used.
(§2) In order to test the sensitivity of the cell lines towards the studied helquats, cytotoxity test for cell viability assessment based on ATP quantification in cell lysates was used (CellTiter-Glo® Luminescent Cell Viability Assay, Promega, cat. no. G7571). In this test, ATP in cell lysates is detected using luciferase reaction. Luminescence intensity correlates with the ATP level and thus with quantity of metabolically active (viable) cells. IC50 value serves as the output, that is the concentration of the test compound which leads to 50% reduction in number of viable cells as compared to control, untreated population. To this end, IC50 value reflects efficiency of the test compound with regard to the given cell line.
(§3) Cells in the exponential growth phase were seeded into a 96-well microtiter plate were plated at 3000 cells per well. Each well contained 90 μl of cell suspension. The next day, 10 μl of 10× concentrated test compound solutions were added. The effect of helquats was investigated in concentration range 1 to 100 μmol·l^−1 (e.g. 1; 2.5; 5; 7.5; 10; 15; 25; 50 and 100 μmol·l^−1). Apart from the section containing the concentration series of the test compound, each well contained 2 control columns, the first with pure medium (so called blank) and the second with cells in medium without the test compounds (control). Into wells containing controls and blanks, volume of solvent (water) equal to the volume of added compound solutions was added. After 72 h of incubation with the test compounds viability was determined according to the manufacturer's instructions. In short: microtiter well plate was left 30 min to reach the room temperature after it has been removed from the incubator. Then, into each well, 100 μl of the prepared detection agent was added. Next, the well plate was shaken for 2 min to complete the full lysis. Next, after the well had been left in the dark for 15 min, the luminescence was measured in each well using luminometer (Tecan Genios, Austria).
(§4) IC50 value represents concentration of the test compound, which leads to 50% reduction of viable cells (inhibition of cell growth) after 72 h of the treatment. Each helquat concentration was tested in triplicates in a IC50 quantification and at least 3 independent IC50 quantification experiments were performed. IC50 values over 100 μmol·l^−1 were obtained by extrapolation of data measured in concentration range 0-100 μmol·l^−1 for the given helquat.

The test system of the next assay is Hep G2. The experiment in a line: CellTiter-Glo luminescent cell viability assay (ATP quantification), Hep G2. Particulars: hepatocellular carcinoma cells, 72 h treatment, viable cells by ATP luminescence. The procedure:
as §1
(§5) Adherent cell line Hep G2 is a permanent in vitro culture derived from liver tissue of a patient with hepatocellular carcinoma. Hep G2 cell line was cultivated in DMEM medium (Sigma-Aldrich, cat. no. M4528) with addition of 2 mmol·l^−1 glutamine (Invitrogen, see above), 10% fetal bovine serum (FBS, Sigma-Aldrich, see above), 100 IU/ml peniciline, 100 μg/ml streptomycine (Sigma-Aldrich, see above). Passaging was performed twice a week. After washing of cells with sterile PBS, the cells were released by 0.25% trypsin/EDTA (Sigma-Aldrich, see above) at 37° C. for 2 minutes. The trypsin was inactivated by addition of 2 volumes of complete medium, cells were then centrifuged (250×g, 5 min), resuspended, and transferred in the amount needed into a new cultivation bottle with fresh medium. Population doubling time of Hep G2 cell line was 28 h under the cultivation conditions used.
as §2
as §3, with “In short: microtiter well plate was left 30 min to reach the room temperature after it has been removed from the incubator. Then, into each well, 100 μl of the prepared detection agent was added. Next, the well plate was shaken for 2 min to complete the full lysis.” left out, “Austria). […]” for “Austria).”

For the next assay, the system named is LoVo. The experiment in a line: CellTiter-Glo luminescent cell viability assay (ATP quantification), LoVo. Particulars: colorectal carcinoma cells, 72 h treatment, viable cells by ATP luminescence, class symbols. The protocol:
as §1
as §5, with “LoVo” for “Hep G2”, “from” for “from liver”, “colorectal” for “hepatocellular”, “D8437)” for “M4528)”, “39” for “28”
as §2, §3, §4

pIC50: −log10 of the molar value. Like-named read-outs stand apart in the source and are kept apart here.

With `Cc1c(C)c2c(c3c1CC[n+]1ccc(/C=C/c4ccc(N(C)C)cc4)cc1-3)-c1c3ccccc3cc[n+]1CC2` [(M)-1, (M)-(E)-13-(4-(dimethylamino)styryl)-6,7-dimethyl-4,5,8,9-tetrahydroiso-quinolino[1,2-a]pyrido[1,2-k][2,9]phenanthroline-3,10-diium trifluoromethanesulfonate], the pIC50 in the assay on HeLa is more than 5.00; with Hep G2 (read-out: IC50 HepG2), 4.30 to 4.96; in the assay on LoVo, 4.30 to 4.96.

Turning to `COc1ccc(/C=C/c2cc[n+]3c(c2)-c2c(c(C)c(C)c4c2-c2c5ccccc5cc[n+]2CC4)CC3)cc1` [(M)-6, (M)-(E)-13-(4-methoxystyryl)-6,7-dimethyl-4,5,8,9-tetrahydroisoquinolino[1,2-a]pyrido[1,2-k][2,9]phenanthroline-3,10-diium trifluoromethanesulfonate], the pIC50 with HeLa (Homo sapiens, HeLa) was 4.30 to 4.96; in the assay on Hep G2 (Homo sapiens, HepG2), 4.30 to 4.96; in the assay with LoVo (Homo sapiens, LoVo) it was 4.30 to 4.96.

Regarding `COc1ccc2cc(/C=C/c3cc[n+]4c(c3)-c3c(c(C)c(C)c5c3-c3c6ccccc6cc[n+]3CC5)CC4)ccc2c1` [(M)-7, (M)-(E)-13-(2-(6-methoxynaphthalene-2-yl)vinyl)-6,7-dimethyl-4,5,8,9-tetrahydroisoquinolino[1,2-a]pyrido[1,2-k][2,9]phenanthroline-3,10-diium trifluoromethanesulfonate], the results for the pIC50 in the assay on HeLa, in the assay with Hep G2 (read-out: IC50 HepG2) and in the assay with LoVo were more than 5.00, 4.30 to 4.96 and 4.30 to 4.96, respectively.
